# Test results from patent publication US8426429B2, “2-amino-quinazoline derivatives useful as inhibitors of β-secretase (BACE)” (Jansssen Pharmaceutica N.V., priority 2004, dated 2013).
# Assays:
# [1] = biological target: T1, β-secretase (BACE) (Homo sapiens, UniProt P56817); test: BACE % Inhibition Assay ((Aedens)-[…]-(Dabcyl K-amide) substrate); type: biochemical; conditions: % error ±10%
# T1 construct: purchased Panvera
# Description: The substrate stock solution was prepared in DMSO as a 10 mg/mL solution. The substrate working solution was prepared by diluting the 10 mg/mL stock solution with substrate assay buffer to a final concentration of […]. The β-secretase (BACE) working solution was prepared by diluting a 0.83 mg/mL BACE stock solution with enzyme assay buffer to a final concentration of 4 μg/mL.
# Test compounds were dissolved in DMSO to 10 mM.
# The screening procedure for this assay was as follows: 15 μL of BACE working solution was pipetted into each well of a 96-well plate. To each well was then pipetted 2 μL of test compound at the selected concentration. Test compound and BACE were then mixed with a pipettor and incubated for 20 min at room temperature. To each well was then added 10 μL of the substrate working solution. The plates were then incubated for 1 hour at room temperature.
# The procedure for the blank was as follows. 15 μL of assay buffer was pipetted into each well to be used as a blank control. To each well was then added 2 μL of vehicle and 10 μL of substrate working solution. The plates were then incubated for 1 hour at room temperature.
# The procedure for the positive control was as follows: 15 μl of BACE working solution was pipetted into each well to be used as a positive control. To each well was then pipetted 2 μL of vehicle. Vehicle and BACE were then mixed with a pipettor and incubated for 20 min at room temperature. To each well was then added 10 μL of the substrate working solution. The plates were the incubated for 1 hour at room temperature.
# For test compounds, % inhibition was determined at each concentration as follows: […]
# [2] = biological target: T1, β-secretase (BACE); test: BACE FS1 % Inhibition Assay; type: biochemical
# Outline: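 Percent inhibition per compound concentration was referenced to vehicle-treated enzyme and no-enzyme wells. Enzyme at a 4 μg/mL working stock plus compound was mixed for 20 min at room temperature before the FS1 substrate (300 μg/mL working stock) was added for a 1 h room-temperature reaction.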
# T1 sequence (P56817 46-501): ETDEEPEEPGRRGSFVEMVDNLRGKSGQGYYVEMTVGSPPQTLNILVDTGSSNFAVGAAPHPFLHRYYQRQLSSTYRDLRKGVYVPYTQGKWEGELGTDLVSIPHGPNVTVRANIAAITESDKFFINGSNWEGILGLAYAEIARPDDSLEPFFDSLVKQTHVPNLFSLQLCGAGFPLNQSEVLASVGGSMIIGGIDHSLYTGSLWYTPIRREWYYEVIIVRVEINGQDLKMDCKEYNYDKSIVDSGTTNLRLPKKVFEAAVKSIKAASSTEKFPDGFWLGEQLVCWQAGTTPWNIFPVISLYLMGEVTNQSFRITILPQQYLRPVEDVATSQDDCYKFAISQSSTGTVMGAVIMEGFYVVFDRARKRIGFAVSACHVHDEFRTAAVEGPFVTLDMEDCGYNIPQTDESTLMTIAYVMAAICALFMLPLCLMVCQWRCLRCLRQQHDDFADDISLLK
smiles,measurement,setting,value
CN(C(=O)[C@@H]1CCCN1C(=O)CN1Cc2cc(Oc3ccccc3)ccc2N=C1N)C1CCCCC1 [Compound 88],% Inhibition,[1]; 3 μM compound,<30%
same,% Inhibition,[1]; 10 μM compound,<30%
NC1=Nc2ccc(Oc3ccccc3)cc2CN1Cc1cccc(CNC(=O)C23CC4CC(CC(C4)C2)C3)c1 [Compound 336],% Inhibition,[1]; 0.3 μM compound,<30%
same,% Inhibition,[1]; 1 μM compound,<30%
same,% Inhibition,[1]; 3 μM compound,<30%
NC1=Nc2ccc(Oc3ccccc3)cc2CN1C(CCNC(=O)C1CCCC1)C1CCCCC1 (stereo not shown) [Compound 392],% Inhibition,[1]; 0.3 μM compound,75%
same,% Inhibition,[1]; 1 μM compound,116%
same,% Inhibition,[1]; 3 μM compound,120%
NC1=Nc2ccc(Oc3ccccc3)cc2CN1C(CNC(=O)CCC1CCCC1)C1CCCCC1 (stereo not shown) [Compound 366],% Inhibition,[1]; 0.3 μM compound,64%
same,% Inhibition,[1]; 1 μM compound,113%
same,% Inhibition,[1]; 3 μM compound,119%
CCOC(=O)CCN1Cc2cc(Oc3ccccc3)ccc2N=C1N [Compound 65],% Inhibition,[1]; 3 μM compound,<30%
same,% Inhibition,[1]; 10 μM compound,<30%
CN(C(=O)[C@@H]1CC[C@H](N2Cc3cc(Oc4ccccc4)ccc3N=C2N)C1)C1CCCCC1 [Compound 77],% Inhibition,[1]; 3 μM compound,<30%
same,% Inhibition,[1]; 10 μM compound,<30%
CC(C)(C)OC(=O)NCC(C1CCCCC1)N1Cc2cc(Oc3ccccc3)ccc2N=C1N (stereo not shown) [Compound 367],% Inhibition,[1]; 0.3 μM compound,<30%
same,% Inhibition,[1]; 1 μM compound,80%
same,% Inhibition,[1]; 3 μM compound,111%
CN(C(=O)c1cc(CN2Cc3cc(Oc4ccccc4)ccc3N=C2N)ccn1)C1CCCCC1 [Compound 89],% Inhibition,[1]; 3 μM compound,77%
same,% Inhibition,[1]; 10 μM compound,81%
NC1=Nc2ccc(Oc3ccccc3)cc2CN1C(CNC(=O)C1CCCCC1)c1ccccc1 (stereo not shown) [Compound 342],% Inhibition,[1]; 0.3 μM compound,50%
same,% Inhibition,[1]; 1 μM compound,93%
same,% Inhibition,[1]; 3 μM compound,119%
CC(C)(C)C(=O)NCC(C1CCCCC1)N1Cc2cc(Oc3ccccc3)ccc2N=C1N (stereo not shown) [Compound 317],% Inhibition,[1]; 0.3 μM compound,<30%
same,% Inhibition,[1]; 1 μM compound,66%
Cc1ccc(S(=O)(=O)NCCN2Cc3cc(Oc4ccccc4)ccc3N=C2N)cc1 [Compound 109],% Inhibition,[1]; 3 μM compound,<30%
same,% Inhibition,[1]; 10 μM compound,58%
NC1=Nc2ccc(Oc3ccccc3)cc2CN1Cc1cccc(CNC(=O)C(c2ccccc2)c2ccccc2)c1 [Compound 337],% Inhibition,[1]; 0.3 μM compound,<30%
same,% Inhibition,[1]; 1 μM compound,<30%
same,% Inhibition,[1]; 3 μM compound,<30%
CN(C(=O)c1cccc(N2Cc3cc(Oc4ccccc4)ccc3N=C2N)c1)C1CCCCC1 [Compound 94],% Inhibition,[1]; 3 μM compound,<30%
same,% Inhibition,[1]; 10 μM compound,<30%
CN(C(=O)[C@H]1CCCC[C@H]1N1Cc2cc(Oc3ccccc3)ccc2N=C1N)C1CCCCC1 [Compound 81],% Inhibition,[1]; 3 μM compound,<30%
same,% Inhibition,[1]; 10 μM compound,<30%
CN(C(=O)[C@@H]1CCCC[C@@H]1N1Cc2cc(Oc3ccccc3)ccc2N=C1N)C1CCCCC1 [Compound 87],% Inhibition,[1]; 3 μM compound,<30%
same,% Inhibition,[1]; 10 μM compound,<30%
CCN(CC)CCN1Cc2cc(Oc3ccccc3)ccc2N=C1N [Compound 79],% Inhibition,[1]; 3 μM compound,<30%
same,% Inhibition,[1]; 10 μM compound,<30%
CN(C(=O)[C@@H]1CCC[C@@H]1N1Cc2cc(Oc3ccccc3)ccc2N=C1N)C1CCCCC1 [Compound 72],% Inhibition,[1]; 3 μM compound,<30%
same,% Inhibition,[1]; 10 μM compound,<30%
CCCC(CNC(=O)C1CCCCC1)N1Cc2cc(Oc3ccccc3)ccc2N=C1N (stereo not shown) [Compound 343],% Inhibition,[1]; 0.3 μM compound,81%
same,% Inhibition,[1]; 1 μM compound,101%
same,% Inhibition,[1]; 3 μM compound,118%
CN(C(=O)c1ccc(CN2Cc3cc(Oc4ccccc4)ccc3N=C2N)cc1)C1CCCCC1 [Compound 97],% Inhibition,[1]; 3 μM compound,<30%
same,% Inhibition,[1]; 10 μM compound,53%
NC1=Nc2ccc(Oc3ccccc3)cc2CN1C(CNC(=O)C1(c2ccc(Cl)cc2)CCCC1)C1CCCCC1 (stereo not shown) [Compound 390],% Inhibition,[1]; 0.3 μM compound,<30%
same,% Inhibition,[1]; 1 μM compound,50%
CCCC(CCC)C(=O)NCc1cccc(CN2Cc3cc(Oc4ccccc4)ccc3N=C2N)c1 [Compound 338],% Inhibition,[1]; 0.3 μM compound,<30%
same,% Inhibition,[1]; 1 μM compound,<30%
same,% Inhibition,[1]; 3 μM compound,<30%
CN(C(=O)C1CCC(CN2Cc3cc(Oc4ccccc4)ccc3N=C2N)CC1)C1CCCCC1 (stereo not shown) [Compound 100],% Inhibition,[1]; 3 μM compound,<30%
same,% Inhibition,[1]; 10 μM compound,<30%
CC(C)(C)OC(=O)N1CCC(N2Cc3cc(Oc4ccccc4)ccc3N=C2N)C1 (stereo not shown) [Compound 93],% Inhibition,[1]; 3 μM compound,<30%
same,% Inhibition,[1]; 10 μM compound,<30%
CCCCC(CC)C(=O)NCc1cccc(CN2Cc3cc(Oc4ccccc4)ccc3N=C2N)c1 (stereo not shown) [Compound 339],% Inhibition,[1]; 0.3 μM compound,<30%
same,% Inhibition,[1]; 1 μM compound,<30%
same,% Inhibition,[1]; 3 μM compound,<30%
NC1=Nc2ccc(Oc3ccccc3)cc2CN1Cc1cccc(C(=O)NC2CCCCC2)c1 [Compound 451],% Inhibition (FS),[2]; 0.3 μM test compound,<30%
same,% Inhibition (FS),[2]; 1 μM test compound,<30%
same,% Inhibition (FS),[2]; 3 μM test compound,<30%
CCCC=Cc1ccc2c(c1)CN(CCNC(=O)c1cc(C)oc1C)C(N)=N2 [Compound 587],% Inhibition (FS),[2]; 0.3 μM test compound,<30%
same,% Inhibition (FS),[2]; 1 μM test compound,<30%
same,% Inhibition (FS),[2]; 3 μM test compound,<30%
CC(C)(C)C1CCC(C(=O)NCCN2Cc3cc(Oc4ccccc4)ccc3N=C2N)CC1 (stereo not shown) [Compound 184],% Inhibition (FS),[2]; 0.3 μM test compound,<30%
same,% Inhibition (FS),[2]; 1 μM test compound,<30%
same,% Inhibition (FS),[2]; 3 μM test compound,31%
CCCCCOc1ccc2c(c1)CN(Cc1cccc(C(=O)N(C)C3CCCCC3)c1)C(N)=N2 [Compound 516],% Inhibition (FS),[2]; 0.3 μM test compound,<30%
same,% Inhibition (FS),[2]; 1 μM test compound,<30%
same,% Inhibition (FS),[2]; 3 μM test compound,<30%
CC(C)[C@@H](CNC(=O)C12CC3CC(CC(C3)C1)C2)N1Cc2cc(Oc3ccccc3)ccc2N=C1N [Compound 553],% Inhibition (FS),[2]; 0.3 μM test compound,<30%
same,% Inhibition (FS),[2]; 1 μM test compound,<30%
same,% Inhibition (FS),[2]; 3 μM test compound,49%
CC(C)(C)C(=O)NCCN1Cc2cc(-c3ccncc3)ccc2N=C1N [Compound 573],% Inhibition (FS),[2]; 0.3 μM test compound,<30%
same,% Inhibition (FS),[2]; 1 μM test compound,<30%
same,% Inhibition (FS),[2]; 3 μM test compound,<30%
CN(C(=O)c1cccc(CN2Cc3cc(OCC4CCCC4)ccc3N=C2N)c1)C1CCCCC1 [Compound 521],% Inhibition (FS),[2]; 0.3 μM test compound,<30%
same,% Inhibition (FS),[2]; 1 μM test compound,<30%
same,% Inhibition (FS),[2]; 3 μM test compound,<30%
CCCC(CNC(=O)C1CCCCC1)N1Cc2cc(Oc3ccccc3)ccc2N=C1N (stereo not shown) [Compound 601],% Inhibition (FS),"[2]; 0.3 μM test compound, 0.3 µM",105%
same,% Inhibition (FS),"[2]; 1 μM test compound, 1 µM",115%
same,% Inhibition (FS),"[2]; 3 μM test compound, 3 µM",121%
CNC(=O)C1CCC(N(C)C(=O)CCC(C2CCCCC2)N2Cc3cc(Oc4ccccc4)ccc3N=C2N)CC1 (stereo not shown) [Compound 765],% Inhibition (FS),"[2]; 0.3 μM compound, FS1 substrate",<30%
same,% Inhibition (FS),"[2]; 1 μM compound, FS1 substrate",56%
same,% Inhibition (FS),"[2]; 3 μM compound, FS1 substrate",97%
NC1=Nc2ccc(-c3ccc4ccccc4c3)cc2CN1CCNC(=O)CCC(F)(F)F [Compound 686],% Inhibition (FS),"[2]; 0.3 μM compound, FS1 substrate",<30%
same,% Inhibition (FS),"[2]; 1 μM compound, FS1 substrate",73%
same,% Inhibition (FS),"[2]; 3 μM compound, FS1 substrate",80%
NC1=Nc2ccc(Oc3ccccc3)cc2CN1CCNC(=O)C1CC1c1ccccc1 (stereo not shown) [Compound 139],% Inhibition (FS),[2]; 3 μM test compound,<30%
same,% Inhibition (FS),[2]; 10 μM test compound,61%
Cc1ccccc1-c1ccc2c(c1)CN(CCNC(=O)CCC(C)C)C(N)=N2 [Compound 661],% Inhibition (FS),"[2]; 0.3 μM compound, FS1 substrate",68%
same,% Inhibition (FS),"[2]; 1 μM compound, FS1 substrate",98%
CC(C)(C)OC(=O)N1CCC(CN2Cc3cc(Oc4ccccc4)ccc3N=C2N)CC1 [Compound 509],% Inhibition (FS),[2]; 0.3 μM test compound,<30%
same,% Inhibition (FS),[2]; 1 μM test compound,<30%
same,% Inhibition (FS),[2]; 3 μM test compound,41%
NC1=Nc2ccc(Oc3ccccc3)cc2CN1[C@@H](CCC(=O)N[C@@H](COCc1ccccc1)C(=O)O)C1CCOCC1 [Compound 782],% Inhibition (FS),"[2]; 0.3 μM compound, FS1 substrate",104%
same,% Inhibition (FS),"[2]; 1 μM compound, FS1 substrate",107%
same,% Inhibition (FS),"[2]; 3 μM compound, FS1 substrate",113%
CN(C(=O)c1cccc(CN2Cc3cc(-c4ccc(C(N)=O)cc4)ccc3N=C2N)c1)C1CCCCC1 [Compound 162],% Inhibition (FS),[2]; 0.3 μM test compound,<30%
same,% Inhibition (FS),[2]; 1 μM test compound,<30%
same,% Inhibition (FS),[2]; 3 μM test compound,<30%
